Test results published in patent US9458172B2, “Pyridinyl and pyrimidinyl sulfoxide and sulfone derivatives” (priority 2012, dated 2016).
Where two headings read alike, the source gives them in different places.

How the values were obtained:
NAMPT = NAMPT (Homo sapiens (Human), UniProt P43490); assay: Biochemical Inhibition Assay (NAMPT enzymatic reaction, NMN quantified by mass spectrometry); settings: 33 nM recombinant His-tagged NAMPT, 1 μM NAM, 30 min at rt
How it was run: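 His-tagged human NAMPT from E. coli preincubated 15 min at rt with compound in 50 mM Hepes pH 7.5, 50 mM NaCl, 5 mM MgCl2, 1 mM THP, then reacted 30 min at rt with 1 μM NAM, […] PRPP, 2.5 mM ATP. NMN quantified by RapidFire mass spectrometry, normalized to L-Cystathionine, background subtracted.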

A2780 cells = assay: In-Vitro Cell Proliferation Assay (SRB); settings: Homo sapiens, A2780, 72 h
[1] = read-out: Cell Proliferation (IC50), A2780 cells, 72 h, sulforhodamine B
[2] = read-out: Cell Proliferation (IC50)

NAMPT, sequence (P43490 whole entry): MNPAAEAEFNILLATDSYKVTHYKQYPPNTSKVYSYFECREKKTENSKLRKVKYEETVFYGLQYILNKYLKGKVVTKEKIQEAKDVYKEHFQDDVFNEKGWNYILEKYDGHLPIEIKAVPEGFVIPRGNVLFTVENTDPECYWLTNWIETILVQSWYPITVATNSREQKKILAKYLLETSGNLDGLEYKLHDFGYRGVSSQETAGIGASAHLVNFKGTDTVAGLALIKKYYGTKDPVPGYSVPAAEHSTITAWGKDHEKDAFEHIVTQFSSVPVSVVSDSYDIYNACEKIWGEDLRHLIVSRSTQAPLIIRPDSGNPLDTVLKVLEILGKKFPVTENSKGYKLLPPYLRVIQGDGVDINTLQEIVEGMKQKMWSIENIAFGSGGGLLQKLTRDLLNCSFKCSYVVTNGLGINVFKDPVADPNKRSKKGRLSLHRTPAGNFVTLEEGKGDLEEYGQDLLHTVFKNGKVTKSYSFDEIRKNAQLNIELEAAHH

Row | Structure (SMILES) | IC50 (NAMPT) | IC50 (A2780 cells; [1]) | IC50 (A2780 cells; [2])
1 | CC(C)n1cc(S(=O)(=O)c2ccc(CNC(=O)c3ccc4nccn4c3)nc2)cn1 [Example 44] | 29.9 nM | 20 nM | –
2 | O=C(NCc1ccc([S+]([O-])c2cccc(OC(F)(F)F)c2)cn1)c1cc2ccncc2o1 (racemic) [Example 90, Furo[2,3-c]pyridine-2-carboxylic acid [5-(3-trifluoromethoxy-benzenesulfinyl)-pyridin-2-ylmethyl]-amide (racemic)] | 16.2 nM | – | 25.5 nM
3 | O=C(NCc1ccc(S(=O)(=O)c2cc(F)cc(F)c2)cn1)c1cnc2[nH]ncc2c1 [Example 1, 1H-Pyrazolo[3,4-b]pyridine-5-carboxylic acid [5-(3,5-difluoro-benzenesulfonyl)-pyridin-2-ylmethyl]-amide] | 56.3 nM | – | 91 nM
4 | O=C(NCc1ccc(S(=O)(=O)c2ccc(C(F)(F)F)nc2)cn1)c1cnc2[nH]ncc2c1 [Example 107, 1H-Pyrazolo[3,4-b]pyridine-5-carboxylic acid [5-(6-trifluoromethyl-pyridine-3-sulfonyl)-pyridin-2-ylmethyl]-amide] | 731 nM | 1300 nM | –
5 | O=C(NCc1ccc(S(=O)(=O)c2cc(F)cc(N3CCOCC3)c2)cn1)c1cnc2[nH]ncc2c1 [Example 85, 1H-Pyrazolo[3,4-b]pyridine-5-carboxylic acid [5-(3-fluoro-5-morpholin-4-yl-benzenesulfonyl)-pyridin-2-ylmethyl]-amide] | 32.9 nM | – | 9.7 nM
6 | O=C(NCc1ccc([S+]([O-])c2cc(F)cc(F)c2)cn1)c1cc2cnccc2[nH]1 (racemic) [Example 9, 1H-Pyrrolo[3,2-c]pyridine-2-carboxylic acid [5-(3,5-difluoro-benzenesulfinyl)-pyridin-2-ylmethyl]-amide (racemic)] | 55.3 nM | – | 209 nM
7 | O=C(NCc1ncc(S(=O)(=O)c2ccccc2)cn1)c1cc2cnccc2[nH]1 [Example 7, 1H-Pyrrolo[3,2-c]pyridine-2-carboxylic acid (5-benzenesulfonyl-pyrimidin-2-ylmethyl)-amide] | 150 nM | – | 131 nM
8 | COc1cc(OC)cc(S(=O)(=O)c2ccc(CNC(=O)c3cc4ccncc4o3)nc2)c1 [Example 112, N-[[5-(3,5-dimethoxyphenyl)sulfonyl-2-pyridyl]methyl]furo[2,3-c]pyridine-2-carboxamide] | 0.99 nM | – | 1.06 nM

Further lines, results first:

Row | IC50 (NAMPT) | IC50 (A2780 cells; [1]) | IC50 (A2780 cells; [2]) | Structure (SMILES)
9 | 99.2 nM | – | 678 nM | Nc1ccc(S(=O)(=O)c2ccc(CNC(=O)N3Cc4ccncc4C3)nc2)cn1 [Example 150, N-[[5-[(6-amino-3-pyridyl)sulfonyl]-2-pyridyl]methyl]-1,3-dihydropyrrolo[3,4-c]pyridine-2-carboxamide]
10 | 433 nM | – | 2000 nM | O=C(NCc1ncc(S(=O)(=O)c2ccccc2)cn1)c1cc2ccncc2s1 [Example 187, N-[[5-(benzenesulfonyl)pyrimidin-2-yl]methyl]thieno[2,3-c]pyridine-2-carboxamide]
11 | 13 nM | – | 18.9 nM | CS(=O)(=O)c1cccc(S(=O)(=O)c2ccc(CNC(=O)c3cc4ccncc4o3)nc2)c1 [Example 124, N-[[5-(3-methylsulfonylphenyl)sulfonyl-2-pyridyl]methyl]furo[2,3-c]pyridine-2-carboxamide]
12 | 15.5 nM | 8.92 nM | – | O=C(NCc1ccc([S+]([O-])c2cc(F)cc(F)c2)cn1)N1Cc2ccncc2C1 (centres unmarked) [Example 116, N-[[5-(3,5-difluorophenyl)sulfinyl-2-pyridyl]methyl]-1,3-dihydropyrrolo[3,4-c]pyridine-2-carboxamide]
13 | 20.2 nM | – | 495 nM | O=C(NCc1ccc(S(=O)(=O)c2ccccc2)cn1)c1cnc2nccn2c1 [Example 185, N-[[5-(benzenesulfonyl)-2-pyridyl]methyl]imidazo[1,2-a]pyrimidine-6-carboxamide]
